Results on 13 compounds are retold here after ChEMBL document CHEMBL1201862, “PubChem BioAssay data set” (2004).

Among the test systems are HCT-116; HOP-62; HOP-92; IGROV-1; K562; KM12; M14; NCI-H226; NCI-H522; OVCAR-4; OVCAR-8; SF-268; SF-295; SK-OV-3; U-251; UO-31; SK-MEL-2.
What all share (test): DTP human tumour cell line panel, 48 h

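Exposure lasted 48 hours, with cells grown in 96-well plates and compounds tested at five concentrations. GI50: concentration for 50% inhibition of growth.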 Activity calls are given as the source filed them. No stated cut-off is given here; in the data, active = GI50 up to about 1.1 µM and inactive = higher.

For `O=C1N(c2ccc(Cl)cc2)C(=O)C2(SC=NN2Cc2ccccc2)N1c1ccc(Cl)cc1` (centres undefined), the GI50 (commonly the concentration giving 50% growth inhibition) with HCT-116 was 9.18 µM (inactive); in the assay with HOP-62, > 100 µM (inactive); in the assay on HOP-92, > 100 µM (inactive); with IGROV-1, > 100 µM (inactive); in the assay on K562, 9.59 µM (inactive); with KM12 it was > 100 µM (inactive). Besides, the GI50 in the assay on M14 was > 100 µM (inactive); in the assay on NCI-H226, > 100 µM (inactive); in the assay on NCI-H522, 7.76 µM (inactive); in the assay on OVCAR-4 it was > 100 µM (inactive); in the assay with OVCAR-8, > 100 µM (inactive); in the assay with SF-268, > 100 µM (inactive). Moreover, the GI50 in the assay with SF-295 was > 10 µM (inactive); with SK-OV-3 it was > 100 µM (inactive); with U-251, > 100 µM (inactive); with UO-31, > 100 µM (inactive).

`O=C(Nc1ccccc1)OCc1nc2c([nH]1)C(=O)C=CC2=O`: the GI50 is 14.9 µM (inactive) with HCT-116; > 100 µM (inactive) in the assay on HOP-62; 24.6 µM (inactive) in the assay on HOP-92; 16.9 µM (inactive) in the assay on IGROV-1; 2.55 µM (inactive) in the assay with K562; 15.6 µM (inactive) in the assay on KM12. Besides, the GI50 is 16 µM (inactive) with M14; 18.7 µM (inactive) in the assay on NCI-H226; 14.3 µM (inactive) with OVCAR-4; 15.5 µM (inactive) in the assay on OVCAR-8; 18.6 µM (inactive) with SF-295; 19.8 µM (inactive) in the assay on SK-MEL-2. The GI50 is 15.9 µM (inactive) with SK-OV-3, 12.5 µM (inactive) with U-251 and 16.8 µM (inactive) in the assay on UO-31.

With `COC(=O)/C(=N\NC(=O)c1ccccc1O)C(C#N)c1ccc(Cl)cc1` (centres undefined), the GI50 was 30.3 µM (inactive) in the assay on HCT-116; 14.6 µM (inactive) in the assay on HOP-62; 89.7 µM (inactive) with HOP-92; 7.4 µM (inactive) with IGROV-1; 37.9 µM (inactive) in the assay on K562; 43.6 µM (inactive) in the assay with KM12. Moreover, the GI50 in the assay on M14 is 40.6 µM (inactive); with NCI-H522, 25.2 µM (inactive); in the assay on OVCAR-4 it was 26.7 µM (inactive); in the assay on OVCAR-8, 28.1 µM (inactive); in the assay with SF-268, 13.2 µM (inactive); in the assay with SF-295, 30.5 µM (inactive). Also, the GI50 is 21.7 µM (inactive) in the assay on SK-MEL-2, 44.7 µM (inactive) in the assay with U-251 and 16.7 µM (inactive) in the assay with UO-31.

Consider `O=C(CSc1nnc(-c2ccc(/N=C\c3ccc(Cl)cc3)cc2)o1)Nc1ccc([N+](=O)[O-])cc1`, for which the GI50 was 2.58 µM (inactive) in the assay on HCT-116; 32.1 µM (inactive) in the assay on HOP-62; 21.2 µM (inactive) in the assay with K562; > 10 µM (inactive) with KM12; 19.4 µM (inactive) in the assay on M14; 21.9 µM (inactive) in the assay with NCI-H226. Moreover, the GI50 with NCI-H522 was 20.9 µM (inactive); in the assay on OVCAR-4, 26.2 µM (inactive); with OVCAR-8 it was 37.6 µM (inactive); in the assay on SF-268, 24.3 µM (inactive); in the assay on SF-295, 30.2 µM (inactive); with SK-MEL-2, 25.4 µM (inactive). For the same compound, the GI50 in the assay with SK-OV-3 is 35.9 µM (inactive); with U-251 it was 19.3 µM (inactive); with UO-31, 18.4 µM (inactive).

For the compound `Cc1c(C(=O)C/C(=N/NC(=O)C[N+](C)(C)C)C(=O)Nc2ccc(Cl)cc2)[n+]([O-])c2ccccc2[n+]1[O-]`, the GI50 in the assay on HCT-116, in the assay on HOP-62, in the assay with HOP-92, in the assay with IGROV-1, with K562 and with KM12 was > 100 µM (inactive) each time. For the same compound, the GI50 in the assay on M14, in the assay on NCI-H226, with NCI-H522, with OVCAR-4, in the assay with OVCAR-8 and in the assay with SF-268 was > 100 µM (inactive) in each case. For the same compound, the GI50 with SF-295, with SK-MEL-2, in the assay on U-251 and in the assay on UO-31 was > 100 µM (inactive) each time.

For `CCC12C[N+]3([O-])CCc4c([nH]c5ccccc45)C(C(=O)OC)(c4cc5c(cc4OC)N(C)C4C(O)(C(=O)OC)C(OC(C)=O)C6(CC)C=CCN7CCC54C76)CC(C3)C1O2` (centres undefined), the GI50 in the assay on HCT-116 is 0.41 µM (active); in the assay with HOP-62, 23.7 µM (inactive); with HOP-92 it was 0.594 µM (active); in the assay on IGROV-1 it was 0.968 µM (active); in the assay with K562, 0.207 µM (active); with KM12, 0.337 µM (active). Further, the GI50 with M14 was 2.17 µM (inactive); in the assay with NCI-H522, 0.063 µM (active); in the assay with OVCAR-4 it was 13.3 µM (inactive); in the assay on OVCAR-8, 2.67 µM (inactive); in the assay with SF-268 it was 0.675 µM (active); with SF-295 it was 0.291 µM (active). The GI50 in the assay with SK-MEL-2 was 0.234 µM (active); in the assay on SK-OV-3, 0.336 µM (active); in the assay on U-251 it was 1.04 µM (active); with UO-31, 3.17 µM (inactive).

For the compound `O=C(CSc1nnc(-c2ccc(/N=C\c3ccc(Cl)cc3)cc2)o1)Nc1cccc([N+](=O)[O-])c1`, the GI50 in the assay with HCT-116, in the assay on HOP-62, with K562, with KM12, with M14 and in the assay on NCI-H226 was > 100 µM (inactive) throughout. The GI50 in the assay with NCI-H522 was 27.5 µM (inactive); in the assay on OVCAR-4, > 100 µM (inactive); in the assay on OVCAR-8, > 100 µM (inactive); in the assay with SF-268, > 100 µM (inactive); in the assay with SF-295 it was > 100 µM (inactive); in the assay with SK-MEL-2, > 100 µM (inactive). The GI50 with SK-OV-3, in the assay with U-251 and in the assay with UO-31 was > 100 µM (inactive) in each case.

As for `CC1(Cc2ccccc2)NC(=S)NC1=O` (centres undefined), the GI50 in the assay with HOP-62 is > 100 µM (inactive); in the assay on HOP-92, 3.03 µM (inactive); with KM12, > 100 µM (inactive); in the assay on M14, > 100 µM (inactive); in the assay on NCI-H226, > 100 µM (inactive); with NCI-H522, > 100 µM (inactive). For the same compound, the GI50 with OVCAR-8, with SF-268, with SF-295, with SK-MEL-2, in the assay on U-251 and with UO-31 was > 100 µM (inactive) in each case.

Turning to `Cc1cc(=O)oc2cc(OCc3nc4ccccc4c(=O)[nH]3)ccc12`, the GI50 in the assay on HCT-116, in the assay on HOP-62, in the assay on HOP-92, in the assay on IGROV-1, in the assay with K562 and in the assay with KM12 was > 100 µM (inactive) throughout. Also, the GI50 in the assay with M14, in the assay on NCI-H226, with NCI-H522, with OVCAR-4, in the assay with OVCAR-8 and in the assay with SF-268 was > 100 µM (inactive) in each case. For the same compound, the GI50 with SF-295, in the assay on SK-MEL-2, in the assay on SK-OV-3 and in the assay on U-251 was > 100 µM (inactive) each time.

Turning to `CCc1c(C#N)c(=O)[nH]c(=O)n1CCN1CCN(C(=O)NCCCCCCNC(=O)N2CCN(CCn3c(CC)c(C#N)c(=O)[nH]c3=O)CC2)CC1`, the GI50 with HCT-116, in the assay on HOP-62, in the assay with IGROV-1, in the assay on K562, with M14 and in the assay with OVCAR-4 was > 100 µM (inactive) throughout. Also, the GI50 in the assay with OVCAR-8, in the assay on SF-295, in the assay on SK-OV-3 and in the assay on U-251 was > 100 µM (inactive) in each case.

Regarding `CSc1nc2c(nc(N)n2C2OC(CO)C(O)C(O)C2O)c(=O)[nH]1` (centres undefined), the GI50 in the assay with HCT-116, with HOP-62, with HOP-92, in the assay on IGROV-1, in the assay with K562 and in the assay on KM12 was > 100 µM (inactive) each time. Further, the GI50 in the assay with M14, with NCI-H226, in the assay on NCI-H522, with OVCAR-4, in the assay on OVCAR-8 and in the assay with SF-268 was > 100 µM (inactive) each time. The GI50 in the assay with SF-295, in the assay on SK-OV-3, in the assay with U-251 and in the assay on UO-31 was > 100 µM (inactive) in each case.

With `COc1cc(/C=C2\NC(=O)C3Cc4c(OC)c(C)c(OC)c(OC)c4C2N3C)c(OC)c(C)c1OC` (centres undefined), the GI50 in the assay on HCT-116, with HOP-62, with HOP-92, with IGROV-1, in the assay with K562 and in the assay on KM12 was > 100 µM (inactive) each time. In addition, the GI50 was > 100 µM (inactive) in the assay with M14; > 100 µM (inactive) in the assay on NCI-H226; 99.5 µM (inactive) in the assay with NCI-H522; > 100 µM (inactive) in the assay with OVCAR-4; > 100 µM (inactive) in the assay with OVCAR-8; > 100 µM (inactive) in the assay with SF-268. In addition, the GI50 in the assay with SF-295, with SK-OV-3, with U-251 and with UO-31 was > 100 µM (inactive) in each case.

For the compound `COc1ccccc1-c1cc(=O)c2cc(C)c(C)c(C(=O)O)c2o1`, the GI50 in the assay with HCT-116, in the assay on HOP-62, in the assay with HOP-92, in the assay with IGROV-1, with K562 and in the assay on KM12 was > 100 µM (inactive) in each case. For the same compound, the GI50 in the assay on M14, in the assay with NCI-H522, in the assay with OVCAR-4, with OVCAR-8, in the assay on SF-268 and in the assay on SF-295 was > 100 µM (inactive) throughout. For the same compound, the GI50 in the assay with SK-MEL-2, with SK-OV-3, in the assay with U-251 and in the assay on UO-31 was > 100 µM (inactive) in each case.
